Converted amounts (≈) assume the structure as drawn. Like-named read-outs stand apart in the source and are kept apart here.
Legend:
[1] = Solubility in gastric juice or intestinal juice model fluid (precipitation method using DMSO); format: physicochemical; conditions: room temperature
Description: Solubility in Gastric Juice or Intestinal Juice Model Fluid
Measurement was performed by a precipitation method using DMSO. Specifically, each of the dimethyl sulfoxide (DMSO) solutions of the compounds was individually added to 1st fluid for Disintegration Test of Japanese Pharmacopoeia (pH: 1.2) or 2nd fluid for Disintegration Test of Japanese Pharmacopoeia (pH: 6.8), and the mixtures were stirred by shaking at room temperature for 24 hours. Subsequently, insoluble substances in each mixture were removed by filtration, and the UV absorption of each filtrate was measured. The obtained values were individually applied to the calibration curves of the compounds prepared in advance to calculate the concentrations of the compounds dissolved (μg/mL).

[2] = pH 1.2, simulated gastric fluid, kinetic from dmso stock, 1st fluid for Disintegration Test of Japanese Pharmacopoeia (pH: 1.2), read-out: Solubility (μg/mL) 1st fluid
[3] = pH 6.8, kinetic from dmso stock, 2nd fluid for Disintegration Test of Japanese Pharmacopoeia (pH: 6.8), read-out: Solubility (μg/mL) 2nd fluid
[4] = 2nd fluid for Disintegration Test of Japanese Pharmacopoeia (pH: 6.8), 24 hours

Q: With `COc1cc(-c2c[nH]c(-c3ccc(C(F)(F)F)nc3)n2)ccc1OCc1ccc(Br)cc1F` [Example 95] as the molecule, how does the melting point read?
A: 175 to 177 °C

Q: What does the source list for `COc1cc(-c2cnc(C3CCCC(F)(F)C3)[nH]2)ccc1OCc1ccc(C(F)(F)F)cn1` (stereo not shown) [Example 5]?
A: solubility at 24 h [1, 2]: 90.1 µg/mL (≈ 193 µM); solubility at 24 h [1, 3]: 1.1 µg/mL (≈ 2.35 µM)

Q: Which results are given for `COc1cc(O[C@@H](C)c2ccc(C(F)(F)F)nc2)ccc1-c1cnc(-c2ccc(F)nc2)[nH]1` [Example 147]?
A: solubility at 24 h [1, 2]: 12.4 µg/mL (≈ 27 µM); solubility at 24 h [1, 3]: 3.6 µg/mL (≈ 7.85 µM)

Q: For `COc1cc(O[C@@H](C)c2ccc(C(F)(F)F)cc2)ccc1-c1cnc(-c2ccc(F)nc2)[nH]1` [Example 145], which solubility at 24 h [1, 2] is on record?
A: < 0.3 µg/mL

Q: And the solubility at 24 h [1, 3]?
A: 4 µg/mL (≈ 8.74 µM)

Q: With `COc1cc(OCc2ccc(C(F)(F)F)cn2)ccc1-c1nc(-c2ccc(F)cn2)[nH]c1Cl` [Example 231] as the molecule, how does the melting point read?
A: 222 to 224 °C (dec.)

Q: With `COc1cc(OCc2ccc(C(F)(F)F)cn2)ccc1-c1nc(-c2ccc(Cl)cn2)[nH]c1Cl` [Example 232] as the molecule, how does the melting point read?
A: 197 to 199 °C (dec.)

Q: For `COc1cc(OCc2ncc(Br)cc2F)ccc1-c1[nH]c(-c2ccc(Cl)nc2)nc1Br` [Example 250], which melting point is on record?
A: 174 to 179 °C

Q: With `COc1cc(OCc2ccc(F)cc2F)ccc1-c1[nH]c(-c2ccc(Cl)nc2)nc1Cl` [Example 244] as the molecule, how does the melting point read?
A: 173 to 177 °C

Q: What does the source list for `COc1cc(O[C@H](C)c2ccc(C(F)(F)F)cc2)ccc1-c1cnc(-c2ccc(F)nc2)[nH]1` [Example 148]?
A: solubility at 24 h [1, 2]: < 0.3 µg/mL; solubility at 24 h [1, 3]: 5.3 µg/mL (≈ 11.6 µM)

Q: For `COc1cc(OCc2ccc(C(F)(F)F)nc2)ccc1-c1[nH]c(-c2ccc(F)nc2)nc1F` [Example 320], which melting point is on record?
A: 194 to 196 °C

Q: Which results are given for `COc1cc(-c2cnc(C3CC(F)(F)C3)[nH]2)ccc1OCc1ccc(C(F)(F)F)cn1` [Example 11]?
A: solubility at 24 h [1, 2]: 80.1 µg/mL (≈ 182 µM); solubility at 24 h [1, 3]: 5.4 µg/mL (≈ 12.3 µM)

Q: With `COc1cc(OCc2ccc(Br)cc2F)ccc1-c1c[nH]c(-c2ccc(C(F)(F)F)nc2)n1` [Example 99] as the molecule, how does the melting point read?
A: 183 to 185 °C

Q: With `COc1cc(OCc2cc(C(F)(F)F)ccn2)ccc1-c1[nH]c(-c2ccc(F)nc2)nc1Cl` [Example 173] as the molecule, how does the melting point read?
A: 185 to 187 °C

Q: For `COc1cc(OCc2cnc(Cl)cn2)ccc1-c1nc(-c2ccc(F)nc2)[nH]c1Cl` [Example 217], which melting point is on record?
A: 231 to 233 °C (dec.)

Q: For `COc1cc(OCc2cc(C(F)(F)F)ccn2)ccc1-c1[nH]c(-c2ccc(Cl)nc2)nc1Cl` [Example 174], which melting point is on record?
A: 176 to 178 °C

Q: Which melting point does the source give for `COc1cc(OCc2ccc(C(F)(F)F)nc2)ccc1-c1c(Cl)nc(-c2ccc(Cl)nc2)n1C` [Example 307] here?
A: 149 to 151 °C

Q: With `COc1cc(OCc2cnccn2)ccc1-c1c[nH]c(-c2ccc(Cl)nc2)n1` [Example 50] as the molecule, how does the melting point read?
A: 210 to 213 °C (dec.)

Q: With `COc1cc(OCc2ccc(Cl)cc2F)ccc1-c1cnc(-c2ccc(F)nc2)[nH]1` [Example 143] as the molecule, how does the melting point read?
A: 178 to 180 °C

Q: With `COc1cc(OCc2ccc(Br)cc2F)ccc1-c1cnc(-c2ccc(F)nc2)[nH]1` [Example 144] as the molecule, how does the melting point read?
A: 177 to 180 °C

Q: Which melting point does the source give for `COc1cc(OC(C)c2ccc(C(F)(F)F)nc2)ccc1-c1cnc(-c2ccc(F)nc2)[nH]1` (stereo not shown) [Example 130] here?
A: 72 to 105 °C

Q: With `COc1cc(OCc2ncc(Cl)cc2F)ccc1-c1[nH]c(-c2ccc(F)nc2)nc1Cl` [Example 283] as the molecule, how does the melting point read?
A: 172 to 175 °C

Q: For `COc1cc(-c2c[nH]c(-c3ccc(Cl)nc3)n2)ccc1OCc1ccc(C(F)(F)F)nc1` [Example 52], which melting point is on record?
A: 179 to 181 °C

Q: For `COc1ccc(-c2nc(-c3ccc(OCc4ccc(C(F)(F)F)cn4)c(OC)c3)c[nH]2)cn1` [Example 70], which melting point is on record?
A: 217 to 218 °C (dec.)

Q: Which melting point does the source give for `COc1cc(OCc2ccc(Br)cc2F)ccc1-c1c[nH]c(-c2ccccn2)n1` [Example 90] here?
A: 219 to 222 °C

Q: With `COc1cc(OC(C)c2cccc(C(F)(F)F)n2)ccc1-c1cnc(-c2ccc(F)nc2)[nH]1` (stereo not shown) [Example 127] as the molecule, how does the solubility at 24 h [1, 2] read?
A: 17.1 µg/mL (≈ 37.3 µM)

Q: And the solubility at 24 h [1, 3]?
A: < 0.3 µg/mL

Q: Which solubility at 24 h [1, 2] does the source give for `COc1cc(OCc2cccc(C(F)(F)F)n2)ccc1-c1cnc(-c2ccc(F)nc2)[nH]1` [Example 113] here?
A: 21.1 µg/mL (≈ 47.5 µM)

Q: What about the solubility at 24 h [1, 3] of the same molecule?
A: 0.5 µg/mL (≈ 1.13 µM)

Q: Which melting point does the source give for `COc1cc(OCc2ncc(Br)cc2F)ccc1-c1[nH]c(-c2ccc(Cl)nc2)nc1Cl` [Example 251] here?
A: 189 to 191 °C

Q: Which melting point does the source give for `COc1cc(OCc2ccc(F)cc2F)ccc1-c1cnc(-c2ccc(Cl)nc2)[nH]1` [Example 101] here?
A: 213 to 218 °C

Q: For `COc1cc(OCc2cc(C(F)(F)F)ccn2)ccc1-c1[nH]c(-c2ccc(F)nc2)nc1Br` [Example 269], which melting point is on record?
A: 179 to 181 °C

Q: Which solubility at 24 h [1, 2] does the source give for `COc1cc(-c2c[nH]c(-c3ccc(F)nc3)n2)ccc1OCc1ccc(C(F)(F)F)cn1` [Example 125] here?
A: 23.1 µg/mL (≈ 52 µM)

Q: What about the solubility at 24 h [1, 3] of the same molecule?
A: 0.5 µg/mL (≈ 1.13 µM)

Q: Which melting point does the source give for `COc1cc(OCc2ccc(Br)cc2F)ccc1-c1[nH]c(-c2ccc(F)nc2)nc1Cl` [Example 284] here?
A: 183 to 185 °C

Q: For `COc1cc(-c2cnc(C3CC(F)(F)C3)[nH]2)ccc1OCc1ccc(C(F)(F)F)nc1` [Example 2], which solubility at 24 h [1, 2] is on record?
A: > 88 µg/mL

Q: And the solubility at 24 h [1, 3]?
A: 25.1 µg/mL (≈ 57.1 µM)

Q: For `COc1cc(-c2cnc(C3CCC(F)(F)C3)[nH]2)ccc1OCc1ccc(C(F)(F)F)cn1` (stereo not shown) [Example 10], which solubility at 24 h [1, 2] is on record?
A: 89.5 µg/mL (≈ 197 µM)

Q: What about the solubility at 24 h [1, 3] of the same molecule?
A: 17.3 µg/mL (≈ 38.2 µM)

Q: With `COc1cc(OCc2cccc(C#N)n2)ccc1-c1[nH]c(C2CCC(F)(F)CC2)nc1Cl` [Example 186] as the molecule, how does the solubility at 24 h [1, 2] read?
A: 23.2 µg/mL (≈ 50.6 µM)

Q: And the solubility at 24 h [1, 3]?
A: < 0.3 µg/mL

Q: With `COc1cc(OCc2cnc(Cl)cn2)ccc1-c1nc(-c2ccc(Cl)nc2)[nH]c1Cl` [Example 215] as the molecule, how does the melting point read?
A: 232 to 234 °C

Q: For `COc1cc(-c2nc(-c3ccc(Cl)nc3)[nH]c2C)ccc1OCc1ccc(C(F)(F)F)nc1` [Example 28], which melting point is on record?
A: 209 to 211 °C

Q: With `COc1cc(OCc2ccc(C(F)(F)F)cn2)ccc1-c1c[nH]c(-c2ccc(C(F)(F)F)nc2)n1` [Example 96] as the molecule, how does the melting point read?
A: 209 to 211 °C

Q: With `COc1cc(OCc2ccc(C(F)(F)F)nc2)ccc1-c1c[nH]c(-c2ccc(Cl)nc2)n1` [Example 54] as the molecule, how does the melting point read?
A: 218 to 220 °C

Q: For `COc1cc(OCc2cccc(C(F)(F)F)n2)ccc1-c1[nH]c(-c2ccc(Cl)nc2)nc1Cl` [Example 282], which melting point is on record?
A: 190 to 193 °C

Q: Which “Solubility (μg/mL) 2nd fluid” value [1, 4] does the source give for `COc1cc(O[C@H](C)c2ccc(C(F)(F)F)nc2)ccc1-c1cnc(-c2ccc(F)nc2)[nH]1` [Example 146] here?
A: 1.2 µg/mL (≈ 2.62 µM)

Q: What about the solubility at 24 h [1, 2] of the same molecule?
A: 9.9 µg/mL (≈ 21.6 µM)

Q: For `COc1cc(OC(C)c2ncc(C(F)(F)F)cc2F)ccc1-c1cnc(-c2ccc(F)nc2)[nH]1` (stereo not shown) [Example 129], which solubility at 24 h [1, 2] is on record?
A: 13.6 µg/mL (≈ 28.5 µM)

Q: And the solubility at 24 h [1, 3]?
A: < 0.3 µg/mL

Q: With `COc1cc(O[C@H](C)c2ccc(C(F)(F)F)nc2)ccc1-c1cnc(-c2ccc(F)nc2)[nH]1` [Example 149] as the molecule, how does the “Solubility (μg/mL) 1st fluid” value ([1]; 1st fluid for Disintegration Test of Japanese Pharmacopoeia (pH: 1.2), 24 hours) read?
A: 19.6 µg/mL (≈ 42.8 µM)

Q: What about the “Solubility (μg/mL) 2nd fluid” value [1, 4] of the same molecule?
A: 3.9 µg/mL (≈ 8.51 µM)

Q: For `COc1cc(OCc2ccc(C(F)(F)F)cn2)ccc1-c1c[nH]c(-c2ccc(SC(C)(C)C)cn2)n1` [Example 59], which melting point is on record?
A: 159 to 160 °C

Q: Which melting point does the source give for `COc1cc(OCc2ccc(Br)cc2F)ccc1-c1c[nH]c(-c2ccc(Cl)nc2)n1` [Example 92] here?
A: 220 to 222 °C

Q: For `COc1cc(-c2c[nH]c(C3CCCCC3)n2)ccc1OCc1ccc(C(F)(F)F)nc1` [Example 51], which solubility at 24 h [1, 2] is on record?
A: 90.2 µg/mL (≈ 209 µM)

Q: And the solubility at 24 h [1, 3]?
A: 9 µg/mL (≈ 20.9 µM)

Q: Which solubility at 24 h [1, 2] does the source give for `COc1cc(OCc2ccc(C(F)(F)F)cn2)ccc1-c1cnc(C2CC(F)(F)C2)[nH]1` [Example 9] here?
A: 87.7 µg/mL (≈ 200 µM)

Q: What about the solubility at 24 h [1, 3] of the same molecule?
A: 1.8 µg/mL (≈ 4.1 µM)

Q: With `COc1cc(-c2cnc(-c3ccc(F)nc3)[nH]2)ccc1O` [Example 110, 4-[2-(6-fluoropyridin-3-yl)-1H-imidazol-5-yl]-2-methoxyphenol] as the molecule, how does the solubility at 24 h [1, 2] read?
A: > 57 µg/mL

Q: And the solubility at 24 h [1, 3]?
A: > 57 µg/mL

Source: patent publication US10570117B2, “Phenylimidazole compound” (Otsuka Pharmaceutical Factory, Inc., priority 2015, dated 2020)
